Tests used:
[1] = tested on: P. falciparum female gametocytes; set-up: method as in Miguel-Blanco et al 2017; details: TCAMS library screen; ref Miguel-Blanco et al 2017; read-out: Pf FGAA IC50; cited from earlier work
HepG2 cells = details: HepG2 value reported with Pf FGAA screen; ref Miguel-Blanco et al 2017; cited from earlier work
[2] = tested on: P. falciparum female gametocytes; assay: P. falciparum female gametogenesis assay (Pf FGAA); details: 1: YES; 0: NO

| SMILES | IC50 [1] | HepG2 cytoxicity (Pf FGAA screen) (HepG2 cells) | Is compound selective in assay? Pf FGAA active? [2] |
| --- | --- | --- | --- |
| O=C(O)C(F)(F)F.O=c1[nH]ccc2nc(N[C@@H]3CCNC3)nc(Nc3cc(Cl)cc(Cl)c3)c12 [TCMDC-135052] | 0.74 µM | 4.79 µM | 0 (0: NO) |
| NCCCNc1nc(Nc2ccc(C(F)(F)F)cc2F)c2c(=O)[nH]ccc2n1.O=C(O)C(F)(F)F [TCMDC-135056] | 1.6 µM | 9.30 µM | 0 (0: NO) |
| COc1ccccc1CNc1ccnc(N2CC(Oc3ccc(F)cc3)C2)n1 [TCMDC-135118] | 4.07 µM | 73.68 µM | 1 (1: YES) |
| CC(C)(C)OC(=O)NCc1ccc(Nc2nnc(-c3cccc(C(=O)NCc4cc(C(F)(F)F)cc(C(F)(F)F)c4)c3)o2)cc1 [TCMDC-135229] | 3.14 µM | 21.43 µM | 0 (0: NO) |
| CN1CCN(Cc2ccc(-c3cc4c(Nc5ccc(OCc6cccc(F)c6)c(Cl)c5)ncnc4s3)[nH]2)CC1 [TCMDC-135458] | 2.41 µM | 10.98 µM | 0 (0: NO) |
| CC(C)N1CCN(C(CN2CCN(CCCOc3ccc(-c4ccccc4)cc3)CC2)c2ccc(F)cc2)CC1.Cl (stereo not drawn) [TCMDC-135497] | 1.42 µM | 2.29 µM | 0 (0: NO) |
| CC(C)N1CCN(C(CN2CCN(CCCOc3ccccc3-c3ccccc3)CC2)c2ccc(F)cc2)CC1.Cl (stereo not drawn) [TCMDC-135499] | 1.41 µM | 4.32 µM | 0 (0: NO) |
| COc1ccc2ccccc2c1CCCCN1CCN(CC(c2ccc(F)cc2)N2CCC2)CC1.O=C(O)C(F)(F)F (stereo not drawn) [TCMDC-135867] | 5.86 µM | 4.37 µM | 0 (0: NO) |
| COc1cc(/C=C(\C2=NC(=O)CS2)c2nc3cccnc3n2C)ccc1O [TCMDC-135917] | 0.72 µM | 21.14 µM | 1 (1: YES) |
| CCn1c(-c2nonc2N)nc2c(-c3cccc(NC(=O)Nc4ccc(Cl)cc4)c3)ncc(OCCCN)c21.O=C(O)C(F)(F)F [TCMDC-136152] | 1.7 µM | 10.96 µM | 0 (0: NO) |
| CCn1c(-c2nonc2N)nc2c(-c3cccc(NC(=O)Nc4ccc(C(F)(F)F)cc4)c3)ncc(OCCCN)c21.O=C(O)C(F)(F)F [TCMDC-136179] | 0.91 µM | 5.62 µM | 0 (0: NO) |
| CCn1c(-c2nonc2N)nc2c(-c3cccc(NC(=O)Nc4ccc5c(c4)CCC5)c3)ncc(OCCCN)c21.O=C(O)C(F)(F)F [TCMDC-136191] | 1.03 µM | 7.42 µM | 0 (0: NO) |
| CCn1c(-c2nonc2N)nc2c(-c3cccc(NC(=O)NC45CC6CC(CC(C6)C4)C5)c3)ncc(OCCCN)c21.O=C(O)C(F)(F)F [TCMDC-136246] | 1.36 µM | 6.10 µM | 0 (0: NO) |
| CN(C)CCCNCc1cn(S(=O)(=O)c2ccccc2Cl)c2ccccc12.Cl [TCMDC-136302] | 1.84 µM | 11.78 µM | 0 (0: NO) |
| Cc1noc(C)c1-c1ccc2c(Nc3nccc4ccccc34)c(C(N)=O)cnc2c1 [TCMDC-136456] | 1.54 µM | 3.85 µM | 0 (0: NO) |
| Cc1cc(C(F)(F)F)cc(-n2ncc(-c3ccc(C(=O)NCc4ccccc4N)cc3)c2N)n1.O=C(O)C(F)(F)F [TCMDC-136658] | 1.46 µM | 26.82 µM | 1 (1: YES) |
| CN1CCN(Cc2ccc(OCc3cccc(COc4ccc(CN5CCN(C)CC5)cc4I)c3)c(I)c2)CC1.Cl [TCMDC-137239] | 1.85 µM | 5.01 µM | 0 (0: NO) |
| CCCCN(CCCC)CCCCNc1c2ccc(Cl)cc2nc2ccc(OC)cc12.Cl [TCMDC-137460] | 1.97 µM | 4.73 µM | 0 (0: NO) |
| COc1cc(CNCCCCCCNCc2cc(OC)c3ccccc3c2OC)c(OC)c2ccccc12.CS(=O)(=O)O [TCMDC-137502] | 1.67 µM | 3.67 µM | 0 (0: NO) |
| Clc1ccc(/N=C(/NCCCCCCCN/C(=N\c2ccc(Cl)cc2)Nc2ccc(Cl)cc2)Nc2ccc(Cl)cc2)cc1 [TCMDC-137529] | 0.58 µM | 2.00 µM | 0 (0: NO) |
| CC(CO)(CO)NCc1cc2c3ccccc3c(CNC(C)(CO)CO)cc2c2ccccc12.CS(=O)(=O)O [TCMDC-137752] | 4.42 µM | 7.33 µM | 0 (0: NO) |
| Clc1ccc(Nc2nc3ccc(Cl)cc3nc2Nc2ccc(Cl)cc2)cc1 [TCMDC-137772] | 1.91 µM | 7.86 µM | 0 (0: NO) |

| SMILES | IC50 [1] | HepG2 cytoxicity (Pf FGAA screen) (HepG2 cells) | Is compound selective in assay? Pf FGAA active? [2] |
| --- | --- | --- | --- |
| Clc1nc(Cl)c2c(ccn2Cc2ccccc2)n1 [TCMDC-137801] | 1.46 µM | >100 µM | 1 (1: YES) |
| CCCCSc1c(CNCCCCCCNCc2ccc3ccccc3c2SCCCC)ccc2ccccc12.CS(=O)(=O)O [TCMDC-137825] | 0.97 µM | 2.76 µM | 0 (0: NO) |
| COc1c(CNCCCCCCNCc2c(OC)c(OC)c3ccccc3c2OC)c(OC)c2ccccc2c1OC.CS(=O)(=O)O [TCMDC-137837] | 3.69 µM | 4.42 µM | 0 (0: NO) |
| Nc1nc(N)c2c(ccc3[nH]c(-c4ccccc4Cl)nc32)n1 [TCMDC-137840] | 4.42 µM | 2.32 µM | 0 (0: NO) |
| CCOc1cc2ccccc2cc1CNCCCCCCNCc1cc2ccccc2cc1OCC.CS(=O)(=O)O [TCMDC-137940] | 1.29 µM | 6.06 µM | 0 (0: NO) |
| COc1cc2c(OC)cccc2cc1CNCCCCCCNCc1cc2cccc(OC)c2cc1OC.CS(=O)(=O)O [TCMDC-137945] | 1.82 µM | 4.90 µM | 0 (0: NO) |
| CCCOc1c(CCNCCCCNCCc2ccc3ccccc3c2OCCC)ccc2ccccc12.CS(=O)(=O)O [TCMDC-137950] | 0.64 µM | 1.72 µM | 0 (0: NO) |
| COc1c(CNCCCCCCNCc2cc(Cl)c3ccccc3c2OC)cc(Cl)c2ccccc12.CS(=O)(=O)O [TCMDC-137958] | 1.18 µM | 4.62 µM | 0 (0: NO) |
| COc1ccc(CCNCCCCNCCc2ccc(OC)c3ccccc23)c2ccccc12.CS(=O)(=O)O [TCMDC-137961] | 0.48 µM | 2.14 µM | 0 (0: NO) |
| CCCCOc1c(CNCCCCCCNCc2ccc3ccccc3c2OCCCC)ccc2ccccc12.CS(=O)(=O)O [TCMDC-137975] | 1.49 µM | 2.21 µM | 0 (0: NO) |
| COc1ccccc1-c1nc2c(ccc3nc(N)nc(N)c32)[nH]1 [TCMDC-137976] | 1.13 µM | 2.87 µM | 0 (0: NO) |
| CCCN(CCC)CCCN(CCCN(CCC)CCC)c1cc(C)nc(Nc2ccc3cc(Br)ccc3c2)n1.Cl [TCMDC-138006] | 0.99 µM | 3.43 µM | 0 (0: NO) |
| Cl.Clc1ccc(CNCCCCCCCNCc2ccc(Cl)c(Cl)c2)cc1Cl [TCMDC-138075] | 0.7 µM | 4.57 µM | 0 (0: NO) |
| COc1cc2nc(N3CCC(CNC(=O)c4ccc(-c5ccc(-c6noc(C)n6)cc5C)cc4)CC3)nc(N)c2cc1OC [TCMDC-138155] | 1.68 µM | 7.62 µM | 0 (0: NO) |
| COc1ccc(N2CCN(CCCCNCc3ccc(NC(=O)c4cc(Cl)cc(Cl)c4)cc3)CC2)c(OC)c1 [TCMDC-138226] | 3.11 µM | 4.42 µM | 0 (0: NO) |
| COc1cc2nc(Nc3ccc4c(ccn4Cc4ccccc4)c3)nc(Nc3ccc4c(ccn4Cc4ccccc4)c3)c2cc1OC [TCMDC-138237] | 1.58 µM | 14.13 µM | 0 (0: NO) |
| CN(C)CCNCc1ccc(-c2ccc3c(Nc4ccc(Cl)cc4F)ccnc3c2)o1 [TCMDC-138391] | 1.71 µM | 0.89 µM | 0 (0: NO) |
| Fc1cc(Cl)ccc1Nc1ccnc2cc(-c3ccc(CN4CCOCC4)o3)ccc12 [TCMDC-138393] | 0.64 µM | 5.62 µM | 0 (0: NO) |
| Cl.Fc1cc(Cl)ccc1Nc1ccnc2cc(-c3ccc(CN4CCNCC4)o3)ccc12 [TCMDC-138394] | 1.91 µM | 12.05 µM | 0 (0: NO) |
| CN(C)CCN(C)Cc1ccc(-c2ccc3c(Nc4ccc(Oc5ccccn5)cc4)ccnc3c2)o1 [TCMDC-138426] | 2.05 µM | 5.37 µM | 0 (0: NO) |
| CN(/N=C/C=C/c1ccc(Cl)cc1)c1nc(NCCc2ccc(O)cc2)nc(N2CCNCC2)n1 [TCMDC-138546] | 1.96 µM | 13.18 µM | 0 (0: NO) |

— publication PMC6753678, “Fueling Open Innovation for Malaria Transmission-Blocking Drugs: Hundreds of Molecules Targeting Early Parasite Mosquito Stages” (Frontiers in Microbiology, 2019)
